According to patent US20030176456A1, “Methods for reducing alcohol cravings in chronic alcoholics” (priority 2001, published 2003):
Read-outs that look alike come from different tables or passages of the source.

Key:
α3β3γ2 GABAA receptor = target: T1, α3β3γ2 GABAA receptor (Homo sapiens, UniProt P18507+P34903); assay: Binding affinity at recombinant GABAA receptors (Ltk cells stably transfected)
T1 construct: expressed in transfected cells

GABAA α2β3γ2 receptors = assay: Xenopus oocyte expression assay, modulation of GABA current; format: cell-based, rat; details: saturating 1-10 μM modulator with EC50 GABA (50 μM); mean±S.D.
P rats = assay: EtOH and sucrose responding after oral (gavage) administration; format: in vivo, rat; details: for responding for sucrose: oral (gavage) 75 mg/kg; for EtOH responding / EtOH responding 24 hours after administration: oral (gavage); for EtOH responding: βCCt 15 & 30 mg/kg, 3-PBC 30-75 mg/kg, naltrexone 30-75 mg/kg; for EtOH responding 24 hours after administration: βCCt 15 & 75 mg/kg
Excerpt: In this study we compared the suppressant effect of βCCt and 3-PBC with naltrexone, a currently used alcohol antagonist on the market. As it is shown in FIG. 29A-B, orally administered βCCt can reduce alcohol responding, however, the effects are not dose related. In addition, 24 hr after administration of βCCt, it continues to reduce alcohol responding with selected doses. […] The suppressant effects of naltrexone in reducing alcohol responding are also dissipated 24 hr after the administration. […] Unlike naltrexone, the suppressant effects observed by βCCt and 3-PBC are selective for alcohol, and not reinforcers in general.

GABAA α3β3γ2 receptors = assay: Xenopus oocyte expression assay, modulation of GABA current; format: cell-based, rat; details: saturating 1-10 μM modulator with EC50 GABA (30 μM); mean±S.D.
α2β3γ2 GABAA receptor = target: T2, α2β3γ2 GABAA receptor (Homo sapiens, UniProt P18507+P47869); assay: Binding affinity at recombinant GABAA receptors (Ltk cells stably transfected)
T2 construct: expressed in transfected cells
T2 sequence (P47869 29-451): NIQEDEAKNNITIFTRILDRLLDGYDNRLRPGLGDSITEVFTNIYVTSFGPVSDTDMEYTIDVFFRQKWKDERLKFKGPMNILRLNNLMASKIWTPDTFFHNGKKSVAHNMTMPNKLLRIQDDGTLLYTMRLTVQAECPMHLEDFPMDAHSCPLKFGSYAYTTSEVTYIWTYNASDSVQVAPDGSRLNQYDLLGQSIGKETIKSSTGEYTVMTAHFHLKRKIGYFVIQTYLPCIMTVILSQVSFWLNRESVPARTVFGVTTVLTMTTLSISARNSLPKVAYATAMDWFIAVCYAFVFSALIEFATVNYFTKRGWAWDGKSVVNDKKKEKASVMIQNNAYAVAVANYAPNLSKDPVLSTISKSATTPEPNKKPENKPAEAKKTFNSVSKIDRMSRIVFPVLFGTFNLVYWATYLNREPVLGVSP
T2 sequence (P28472 26-473 partner): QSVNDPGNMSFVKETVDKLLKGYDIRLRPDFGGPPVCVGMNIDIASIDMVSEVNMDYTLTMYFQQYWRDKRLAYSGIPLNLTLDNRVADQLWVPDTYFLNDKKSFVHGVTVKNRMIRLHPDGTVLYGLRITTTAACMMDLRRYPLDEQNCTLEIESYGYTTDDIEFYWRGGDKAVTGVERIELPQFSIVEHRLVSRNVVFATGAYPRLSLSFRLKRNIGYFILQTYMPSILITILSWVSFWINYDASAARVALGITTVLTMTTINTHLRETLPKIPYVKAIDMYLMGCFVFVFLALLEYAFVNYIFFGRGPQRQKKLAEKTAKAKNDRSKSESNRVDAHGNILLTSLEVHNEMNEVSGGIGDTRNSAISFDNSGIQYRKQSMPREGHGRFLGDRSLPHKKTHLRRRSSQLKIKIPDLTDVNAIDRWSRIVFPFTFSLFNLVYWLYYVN
T2 sequence (P18507 40-475): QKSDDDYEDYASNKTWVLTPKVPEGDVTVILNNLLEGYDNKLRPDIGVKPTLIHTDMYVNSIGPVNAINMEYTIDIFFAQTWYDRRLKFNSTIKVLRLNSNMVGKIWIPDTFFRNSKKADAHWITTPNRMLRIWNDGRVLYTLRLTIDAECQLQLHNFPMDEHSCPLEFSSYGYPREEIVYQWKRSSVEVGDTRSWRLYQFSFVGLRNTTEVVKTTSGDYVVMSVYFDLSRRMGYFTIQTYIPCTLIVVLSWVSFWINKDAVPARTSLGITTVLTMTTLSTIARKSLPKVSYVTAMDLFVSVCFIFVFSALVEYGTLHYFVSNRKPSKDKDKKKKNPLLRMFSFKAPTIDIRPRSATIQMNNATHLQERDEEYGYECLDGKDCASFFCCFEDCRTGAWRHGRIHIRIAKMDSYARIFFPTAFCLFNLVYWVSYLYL

[1] = system: alcohol-preferring (P) rats; assay: Operant self-administration, concurrent FR4 schedule for EtOH and saccharin; format: in vivo, rat; details: for EtOH-maintained responding / saccharin-maintained responding: bilateral infusion 5-40 μg in NACC/caudate putamen (neuroanatomical control)
Protocol: Behavioral testing was conducted in 15 standard operant chambers (Coulbourn Instruments) equipped with two removable levers and two dipper fluid delivery systems enclosed in sound-attenuated cubicles as previously described (June et al., 1998a,b). A concurrent fixed-ratio schedule was employed to investigate the capacity of systemic and direct microinjections of 3-PBC in the CNS to modify EtOH and saccharin-maintained responding. The specific details of these procedures have recently been described (June et al., 1998; 1999; 2001). In brief, rats were initially trained to orally self-administer EtOH and water in daily 60 min sessions on a concurrent FRI schedule in a two-lever choice situation. After a period of stabilization on the FRI schedule, the response requirement was increased to a concurrent FR4 schedule and the water reinforcer was replaced with saccharin (0.025-0.05% w/v). The importance of alternative and concurrently presented reinforcers in examining the positive reinforcing properties of drugs of abuse has been discussed previously (Meisch and Lemaire, 1993; June et al., 2001; June in press).
3-PBC was administered 15 min before the operant session to allow for optimal absorption and CNS distribution. […] The duration of the operant sessions was 60 min, however, subjects were tested at 24 and 48 hour post drug administration to determine any residual drug effects. A minimum of 72-96 hours were allocated between drug treatments to permit animals to return to baseline levels. This period prevented confounding of drug treatments due to residual effects (for details see June et al., 1998b).
Guide cannulas were stereotaxically implanted bilaterally in the anterior (AP +0.48; ML ±1.6; DV −7.2, with 6° lateral angle) (n=8) and medial (AP −0.26; ML ±2.5; DV −7.0) (n=6) VP. The neuroanatomical control rats were bilaterally implanted in either the caudate putamen or NACC. The coordinates for the caudate putamen were AP +1.5; ML ±2.5; DV 4.2 (n=3). In the NACC group some rats were implanted in the shell [AP +1.4; ML +0.8; DV −6.0] (n=3) while others were implanted in the core [AP +1.4; ML ±1.7; DV −5.71] (n=3). All coordinates are given in millimeters relative to Bregma based on the Paxinos and Watson (1998) atlas. Subjects were given 7 days to recover from surgery before returning to training in the operant chamber. The 3-PBC infusions were delivered immediately before the operant session with a Harvard infusion pump in aCSF (composition in mM: NaCl, 120; KCl, 4.8; KH2PO4, 1.2; MgSO4, 1.2; NaHCO3, 25; CaCl2, 2.5; d-glucose, 10) as previously described (for details see June et al., 2001).
Statistical Analysis The operant maintained responding data were analyzed by a single factor repeated measures ANOVA with drug treatment (i.e., dose) as the independent factor. The dependent variables were EtOH and saccharin-maintained responding. Each dependent variable was analyzed separately. Post-hoc comparisons between individual drug treatments were made using the Newman Keuls Test in all experiments. In systemic studies, drug treatment comparisons were made against the no injection (e.g., baseline=BL) and Tween-20 vehicle control conditions. In the microinjection studies, drug treatment comparisons were made against the no injection control condition (e.g., baseline=BL) and aCSF control condition. All microinjection data were obtained and analyzed following correct histological verification under a light microscope. To determine the time course of antagonism across the 60 min session, a single factor ANOVA was conducted at each of the six-10 min intervals on the cumulative response data for the respective drug treatment conditions relative to the pooled controlled conditions. EtOH and saccharin maintained responding data were analyzed separately. Post-hoc analyses were performed on the cumulative interval data using the least significant difference (LSD) test. […]

α5β3γ2 GABAA receptor = target: T3, α5β3γ2 GABAA receptor (Homo sapiens, UniProt P18507+P31644); assay: Binding affinity at recombinant GABAA receptors (Ltk cells stably transfected)
T3 construct: expressed in transfected cells
T3 sequence (P31644 32-462): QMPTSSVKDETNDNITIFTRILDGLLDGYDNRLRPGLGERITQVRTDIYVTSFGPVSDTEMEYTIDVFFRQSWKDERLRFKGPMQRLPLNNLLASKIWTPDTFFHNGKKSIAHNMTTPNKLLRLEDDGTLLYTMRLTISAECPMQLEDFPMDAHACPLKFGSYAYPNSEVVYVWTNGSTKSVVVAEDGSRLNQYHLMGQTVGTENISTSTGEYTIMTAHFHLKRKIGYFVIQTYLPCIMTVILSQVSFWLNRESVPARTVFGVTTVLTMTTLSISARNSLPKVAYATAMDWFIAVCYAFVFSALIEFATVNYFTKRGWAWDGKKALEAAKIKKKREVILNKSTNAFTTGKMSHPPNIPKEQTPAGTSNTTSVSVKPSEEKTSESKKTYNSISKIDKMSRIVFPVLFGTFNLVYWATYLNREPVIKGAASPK
T3 sequence (P28472 26-473 partner): as the sequence (P28472 26-473 partner) above
T3 sequence (P18507 40-475): as the sequence (P18507 40-475) above

α6β3γ2 GABAA receptor = target: T4, α6β3γ2 GABAA receptor (Homo sapiens, UniProt P18507+Q16445); assay: as above; details: recombinant αxβ3γ2; read-out: Ki α6
T4 construct: expressed in transfected cells
T4 sequence (Q16445 20-453): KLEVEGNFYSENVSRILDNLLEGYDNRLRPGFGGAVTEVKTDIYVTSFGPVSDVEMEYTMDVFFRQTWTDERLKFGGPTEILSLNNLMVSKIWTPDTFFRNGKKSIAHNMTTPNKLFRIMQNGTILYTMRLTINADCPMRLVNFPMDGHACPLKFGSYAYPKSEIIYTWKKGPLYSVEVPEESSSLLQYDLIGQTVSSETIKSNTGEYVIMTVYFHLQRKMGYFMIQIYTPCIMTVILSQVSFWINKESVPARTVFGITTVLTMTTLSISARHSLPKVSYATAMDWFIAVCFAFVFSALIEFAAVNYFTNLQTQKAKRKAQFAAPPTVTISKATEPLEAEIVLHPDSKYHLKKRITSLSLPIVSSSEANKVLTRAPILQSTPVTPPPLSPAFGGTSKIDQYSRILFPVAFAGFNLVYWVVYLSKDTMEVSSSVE
T4 sequence (P28472 26-473 partner): as the sequence (P28472 26-473 partner) above
T4 sequence (P18507 40-475): as the sequence (P18507 40-475) above

selected rodent lines = assay: Plus-maze test in selected rodent lines; format: in vivo; details: particularly at moderate to high doses (>7.5 mg/kg)
α1β3γ2 GABAA receptor = target: T5, α1β3γ2 GABAA receptor (Homo sapiens, UniProt P14867+P18507); assay: Binding affinity at recombinant GABAA receptors (Ltk cells stably transfected)
T5 construct: expressed in transfected cells
T5 sequence (P14867 28-456): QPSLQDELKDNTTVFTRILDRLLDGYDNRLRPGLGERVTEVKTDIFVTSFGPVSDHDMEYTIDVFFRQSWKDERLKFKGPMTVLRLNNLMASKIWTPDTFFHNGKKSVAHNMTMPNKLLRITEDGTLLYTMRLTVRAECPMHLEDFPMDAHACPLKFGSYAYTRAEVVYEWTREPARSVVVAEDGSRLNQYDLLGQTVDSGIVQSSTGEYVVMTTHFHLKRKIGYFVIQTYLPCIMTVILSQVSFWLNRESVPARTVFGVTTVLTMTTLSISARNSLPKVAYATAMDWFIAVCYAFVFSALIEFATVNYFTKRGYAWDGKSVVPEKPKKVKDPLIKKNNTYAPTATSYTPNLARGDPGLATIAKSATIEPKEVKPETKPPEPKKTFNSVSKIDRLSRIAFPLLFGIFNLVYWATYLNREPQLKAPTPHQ
T5 sequence (P28472 26-473 partner): as the sequence (P28472 26-473 partner) above
T5 sequence (P18507 40-475): as the sequence (P18507 40-475) above

GABAA α4β3γ2 receptors = assay: Xenopus oocyte expression assay, modulation of GABA current; format: cell-based, rat
[2] = bilateral infusion in ventral pallidum (VP), 3-PBC 0.5-40 μg, βCCt 5-40 μg
[3] = i.p. 15 min before 60 min session, 3-PBC 1-20 mg/kg, βCCt 5-40 mg/kg
[4] = i.p., 3-PBC 1-10 mg/kg, βCCt 5-40 mg/kg

T1 sequence (P34903 29-492): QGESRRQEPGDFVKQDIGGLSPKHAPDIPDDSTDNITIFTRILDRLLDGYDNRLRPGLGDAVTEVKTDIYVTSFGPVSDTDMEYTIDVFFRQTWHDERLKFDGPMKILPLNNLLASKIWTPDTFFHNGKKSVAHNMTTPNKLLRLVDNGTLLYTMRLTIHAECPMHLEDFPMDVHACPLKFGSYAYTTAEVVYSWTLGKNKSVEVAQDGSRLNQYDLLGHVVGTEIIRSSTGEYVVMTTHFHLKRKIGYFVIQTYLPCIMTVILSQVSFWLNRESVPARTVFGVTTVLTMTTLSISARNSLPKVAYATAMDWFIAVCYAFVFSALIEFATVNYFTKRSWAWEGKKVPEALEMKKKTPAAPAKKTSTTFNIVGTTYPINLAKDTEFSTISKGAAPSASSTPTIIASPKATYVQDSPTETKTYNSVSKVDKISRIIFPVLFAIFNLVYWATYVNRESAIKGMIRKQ
T1 sequence (P28472 26-473 partner): as the sequence (P28472 26-473 partner) above
T1 sequence (P18507 40-475): as the sequence (P18507 40-475) above

| Compound | responding for sucrose (P rats) | EtOH responding (P rats) | EtOH responding 24 hours after administration (P rats) | % of GABA response, α3 (GABAA α3β3γ2 receptors) | EtOH-maintained responding [1] | saccharin-maintained responding [1] | saccharin-maintained responding, total session ([1]; bilateral infusion in VP) | EtOH-maintained responding, total session [1, 2] | EtOH-maintained responding, total session [1, 3] | saccharin-maintained responding, total session [1, 4] | Ki (α6β3γ2 GABAA receptor) | anxiolytic effects in the plus-maze test (selected rodent lines) | other results |
| --- | --- | --- | --- | --- | --- | --- | --- | --- | --- | --- | --- | --- | --- |
| CCCOc1cc2c(cn1)[nH]c1ccccc12.Cl [3-PBC, 3-Propoxy-β-carboline hydrochloride] | fails to alter responding for sucrose | dose-dependently reduces EtOH responding | dissipated | 119±6% | without effect | without effect | only the 40 μg dose significantly reduced saccharin responding | dose-dependently reduced | significant dose-related reduction | significant elevation | > 1000 nM | capable of producing anxiolytic effects | Ki (α3β3γ2 GABAA receptor; recombinant αxβ3γ2, read-out: Ki α3): 68.8 nM; % of GABA response, α2 (GABAA α2β3γ2 receptors): 116±7%; Ki (α2β3γ2 GABAA receptor; recombinant αxβ3γ2, read-out: Ki α2): 52.3 nM; cumulative within session alcohol responding ([1]; VP infusion, initial 10 and 20 min intervals): significant reduction; saccharin-maintained responding, total session ([1]; i.p. 20 mg/kg): significantly suppressed; cumulative within session EtOH responding ([1]; i.p., first 10, 20 and 30 min intervals): suppressed the initiation of EtOH responding; Ki (α5β3γ2 GABAA receptor; recombinant αxβ3γ2, read-out: Ki α5): 591 nM; selectivity for α1 relative to α2 (α1β3γ2 GABAA receptor; binding selectivity): 9.8 fold; selectivity for α1 relative to α3 (α1β3γ2 GABAA receptor; binding selectivity): 13 fold; selectivity for α1 relative to α5 (α1β3γ2 GABAA receptor; binding selectivity): 111 fold; Ki (α1β3γ2 GABAA receptor; recombinant αxβ3γ2, read-out: Ki α1): 5.3 nM; % of GABA response, α4 (GABAA α4β3γ2 receptors): 129±3% |
| CC(C)(C)OC(=O)c1cc2c(cn1)[nH]c1ccccc12 [βCCt, β-carboline-3-carboxylate t-butyl ester] | fails to alter responding for sucrose | significantly reduces EtOH responding | significantly reduce EtOH responding | 108±6% | none of the βCCt treatments altered | none of the βCCt treatments altered | did not alter | dose-dependently reduced | all doses significantly suppressed | without effect | > 1000 nM | capable of producing anxiolytic effects | Ki (α3β3γ2 GABAA receptor): 18.9 nM; Ki (α2β3γ2 GABAA receptor): 15 nM; suppression of EtOH responding 24 hr post-drug ([1]; i.p. 40 mg/kg, 24 hr post-drug administration): 76 % of control levels; Ki (α5β3γ2 GABAA receptor): 111 nM; Ki (α1β3γ2 GABAA receptor): 0.72 nM; fold more selective than flumazenil at α1 sites (α1β3γ2 GABAA receptor; binding selectivity): over 20 fold; fold more selective than zolpidem at α1 sites (α1β3γ2 GABAA receptor; binding selectivity): 3.5 fold |
